Active and inactive are the calls of the source. No cut-off for these calls is given here.
Columns and labels:
[1] = system: Rauscher murine leukemia virus; assay: Inhibition of Rauscher murine leukemia virus reverse transcriptase activity
[2] = system: Rauscher murine leukemia virus; assay: Inhibition of Rauscher murine leukemia virus reverse transcriptase assessed as incorporation of [3H]dTMP at 10 ug/ml
[3] = system: Human immunodeficiency virus; assay: Inhibition of HIV reverse transcriptase activity expressed in Escherichia coli
[4] = system: Human immunodeficiency virus; assay: Inhibition of HIV reverse transcriptase expressed in Escherichia coli assessed as incorporation of [3H]dTMP at 10 ug/ml
[5] = system: Human immunodeficiency virus; assay: Inhibition of HIV reverse transcriptase expressed in Escherichia coli assessed as mixed-type inhibition using (rA)n.(dT)12-18 as primer by double reciprocal plot
[6] = Inhibition of HIV reverse transcriptase expressed in Escherichia coli by Dixon plot; set-up: species or system Human immunodeficiency virus
[7] = system: Human immunodeficiency virus; assay: Inhibition of HIV reverse transcriptase expressed in Escherichia coli assessed as non-competitive inhibition using dTTP as primer by double reciprocal plot
[8] = system: Human immunodeficiency virus; assay: Inhibition of HIV reverse transcriptase expressed in Escherichia coli assessed as competitive inhibition using (rA)n.(dT)12-18 as primer by double reciprocal plot
[9] = system: Human immunodeficiency virus; assay: Inhibition of HIV reverse transcriptase expressed in Escherichia coli assessed as incorporation of [3H]dTMP at 1 ug/ml
[10] = target: DNA nucleotidylexotransferase (Bos taurus) (UniProt P06526); assay: Inhibition of terminal deoxynucleotidyltransferase from calf thymus up to 1 ug/ml
DNA nucleotidylexotransferase (Bos taurus), sequence (P06526 whole entry): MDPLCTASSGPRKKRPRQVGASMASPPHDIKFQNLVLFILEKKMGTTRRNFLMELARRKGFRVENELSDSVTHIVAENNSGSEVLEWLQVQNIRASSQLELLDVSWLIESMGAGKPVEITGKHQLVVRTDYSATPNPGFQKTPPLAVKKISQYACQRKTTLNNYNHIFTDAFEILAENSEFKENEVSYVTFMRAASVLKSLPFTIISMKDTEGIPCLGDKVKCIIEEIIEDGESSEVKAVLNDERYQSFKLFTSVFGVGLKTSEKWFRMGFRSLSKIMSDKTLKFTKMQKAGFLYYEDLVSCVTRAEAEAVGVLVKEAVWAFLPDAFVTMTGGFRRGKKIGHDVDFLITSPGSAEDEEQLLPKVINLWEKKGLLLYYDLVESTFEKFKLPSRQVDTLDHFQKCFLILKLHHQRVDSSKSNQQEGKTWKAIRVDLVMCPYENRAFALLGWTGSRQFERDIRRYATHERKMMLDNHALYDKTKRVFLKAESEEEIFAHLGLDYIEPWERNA

DNA polymerase beta [11] = target: T1, DNA polymerase beta (Homo sapiens, UniProt P06746); assay: Inhibition of DNA polymerase beta from human KB3 cells assessed as competitive type inhibition using (rA)n.(dT)12-18 as substrate
[12] = system: Rauscher murine leukemia virus; assay: Inhibition of Rauscher murine leukemia virus reverse transcriptase assessed as incorporation of [3H]dTMP at 0.2 ug/ml
[13] = system: Human immunodeficiency virus; assay: Inhibition of HIV reverse transcriptase expressed in Escherichia coli assessed as incorporation of [3H]dTMP at 0.2 ug/ml
[14] = target: T2, DNA polymerase alpha catalytic subunit (Homo sapiens, UniProt P09884); assay: Inhibition of DNA polymerase alpha from human KB3 cells; type: cell-based
T2 sequence (P09884 whole entry): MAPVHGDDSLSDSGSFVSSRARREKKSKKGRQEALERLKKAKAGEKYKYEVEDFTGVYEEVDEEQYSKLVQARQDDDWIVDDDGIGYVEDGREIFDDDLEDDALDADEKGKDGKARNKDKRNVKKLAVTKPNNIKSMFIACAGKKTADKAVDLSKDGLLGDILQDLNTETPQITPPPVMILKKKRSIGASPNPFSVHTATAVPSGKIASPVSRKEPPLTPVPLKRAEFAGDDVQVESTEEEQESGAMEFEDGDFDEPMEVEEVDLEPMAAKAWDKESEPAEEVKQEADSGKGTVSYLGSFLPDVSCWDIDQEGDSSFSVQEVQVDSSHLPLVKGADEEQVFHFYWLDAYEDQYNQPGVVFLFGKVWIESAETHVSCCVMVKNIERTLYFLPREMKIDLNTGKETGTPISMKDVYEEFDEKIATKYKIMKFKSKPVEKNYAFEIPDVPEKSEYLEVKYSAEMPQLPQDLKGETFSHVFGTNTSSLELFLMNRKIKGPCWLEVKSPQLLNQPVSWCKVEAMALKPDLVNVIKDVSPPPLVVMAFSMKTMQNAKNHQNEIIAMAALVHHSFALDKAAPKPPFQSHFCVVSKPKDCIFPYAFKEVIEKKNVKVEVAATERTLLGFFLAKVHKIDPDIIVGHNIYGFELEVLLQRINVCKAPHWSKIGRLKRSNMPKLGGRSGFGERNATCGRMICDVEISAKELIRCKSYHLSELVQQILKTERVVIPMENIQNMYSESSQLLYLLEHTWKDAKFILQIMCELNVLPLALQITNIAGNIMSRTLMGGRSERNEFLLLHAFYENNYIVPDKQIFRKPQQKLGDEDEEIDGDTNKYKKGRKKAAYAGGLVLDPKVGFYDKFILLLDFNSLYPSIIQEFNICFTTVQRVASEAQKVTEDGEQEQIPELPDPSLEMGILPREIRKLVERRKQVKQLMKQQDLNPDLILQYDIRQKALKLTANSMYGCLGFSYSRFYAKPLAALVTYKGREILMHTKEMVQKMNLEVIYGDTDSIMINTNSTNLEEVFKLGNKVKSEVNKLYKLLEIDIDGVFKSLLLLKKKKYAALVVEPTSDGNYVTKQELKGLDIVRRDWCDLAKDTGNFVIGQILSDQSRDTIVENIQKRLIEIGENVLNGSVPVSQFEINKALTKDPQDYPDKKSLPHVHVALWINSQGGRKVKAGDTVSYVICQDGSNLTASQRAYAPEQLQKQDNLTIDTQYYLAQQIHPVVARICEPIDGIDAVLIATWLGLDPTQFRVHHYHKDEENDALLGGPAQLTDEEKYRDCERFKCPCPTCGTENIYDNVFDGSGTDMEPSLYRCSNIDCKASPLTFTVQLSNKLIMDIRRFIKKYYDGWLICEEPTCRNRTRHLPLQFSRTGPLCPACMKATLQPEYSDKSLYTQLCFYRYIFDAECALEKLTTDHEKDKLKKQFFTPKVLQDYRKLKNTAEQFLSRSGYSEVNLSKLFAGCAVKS

[15] = target: T3, DNA polymerase alpha catalytic subunit (Homo sapiens) (UniProt P09884); assay: Inhibition of DNA polymerase alpha from human KB3 cells assessed as competitive type inhibition using activated DNA as substrate
T3 sequence (whole entry): T2 sequence (P09884 whole entry)

[16] = target: T3, DNA polymerase alpha catalytic subunit (Homo sapiens); assay: Inhibition of DNA polymerase alpha from human KB3 cells assessed as non-competitive type inhibition using dNTP as substrate
DNA polymerase beta [17] = target: T1, DNA polymerase beta; assay: Inhibition of DNA polymerase beta from human KB3 cells assessed as non-competitive type inhibition using dTTP as substrate
DNA polymerase beta [18] = target: T1, DNA polymerase beta; assay: Inhibition of DNA polymerase beta from human KB3 cells; type: cell-based
[19] = target: DNA polymerase I (Escherichia coli) (UniProt P00582); assay: Inhibition of DNA polymerase-1 from Escherichia coli up to 1 ug/ml
DNA polymerase I (Escherichia coli), sequence (P00582 whole entry): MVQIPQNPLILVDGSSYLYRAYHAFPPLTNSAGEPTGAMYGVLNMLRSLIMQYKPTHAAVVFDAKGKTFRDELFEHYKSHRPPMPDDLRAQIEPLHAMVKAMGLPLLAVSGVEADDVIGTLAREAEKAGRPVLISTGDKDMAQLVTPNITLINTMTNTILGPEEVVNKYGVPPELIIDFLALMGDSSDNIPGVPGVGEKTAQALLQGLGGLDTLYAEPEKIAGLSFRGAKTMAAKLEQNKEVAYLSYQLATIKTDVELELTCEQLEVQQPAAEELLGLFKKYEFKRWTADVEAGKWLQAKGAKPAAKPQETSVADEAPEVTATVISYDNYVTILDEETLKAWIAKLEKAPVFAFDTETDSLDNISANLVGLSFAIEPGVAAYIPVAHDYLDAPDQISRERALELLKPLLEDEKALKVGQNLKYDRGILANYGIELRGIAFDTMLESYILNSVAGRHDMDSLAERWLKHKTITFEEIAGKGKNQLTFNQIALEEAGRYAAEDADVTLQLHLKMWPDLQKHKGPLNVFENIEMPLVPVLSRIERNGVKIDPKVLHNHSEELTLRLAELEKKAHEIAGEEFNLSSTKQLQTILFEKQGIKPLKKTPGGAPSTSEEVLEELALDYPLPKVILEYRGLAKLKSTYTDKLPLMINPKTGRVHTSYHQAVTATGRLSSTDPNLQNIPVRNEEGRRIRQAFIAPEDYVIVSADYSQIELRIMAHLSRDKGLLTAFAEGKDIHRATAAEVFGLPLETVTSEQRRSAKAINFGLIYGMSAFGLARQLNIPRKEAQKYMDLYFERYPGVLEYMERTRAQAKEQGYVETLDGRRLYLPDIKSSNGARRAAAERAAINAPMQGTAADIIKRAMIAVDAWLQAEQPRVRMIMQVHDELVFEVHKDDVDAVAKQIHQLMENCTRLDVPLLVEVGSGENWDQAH

[20] = system: Rauscher murine leukemia virus; assay: Inhibition of Rauscher murine leukemia virus reverse transcriptase assessed as incorporation of [3H]dTMP at 1 ug/ml
[21] = target: T3, DNA polymerase alpha catalytic subunit (Homo sapiens); assay: Inhibition of DNA polymerase alpha from human KB3 cells at 1 ug/ml; type: cell-based
KB3 = assay: Inhibition of DNA polymerase gamma from human KB3 cells up to 1 ug/ml; type: cell-based

Compound	Activity [1]	Activity [3]	Ki [6]	Activity [7]	other results
O=C(O)c1cc(O)c(O)c(O)c1	inactive	inactive			Activity [2]: inactive; Activity [4]: inactive
COCCOCCOCCOC(=O)c1cc(O)c(O)c(OC(=O)c2ccc(O)c(O)c2O)c1	Active	Active	390 nM	Active	Activity [5]: Active
COCCOCCOC(=O)c1cc(O)c(O)c(OC(=O)c2ccc(O)c(O)c2O)c1	Active	Active	120 nM	Active	Activity [8]: Active
O=C(Oc1cc(O)cc(O)c1C(=O)O)c1ccc(O)c(O)c1	inactive	inactive			
COCCOCCOCCOC(=O)c1cc(O)c(O)c(O)c1	inactive	inactive			
COCCOCCOC(=O)c1cc(O)c(O)c(O)c1	inactive	inactive			
COCCOCCOc1c(O)ccc(C(=O)Oc2cc(C(=O)O)cc(O)c2O)c1O	inactive	inactive			
COCCOCCOc1c(C(=O)Oc2cc(C(=O)O)cc(O)c2O)ccc(O)c1O	inactive	inactive			
O=C(O)c1cc(O)c(O)c(OC(=O)c2cc(O)c(O)c(O)c2)c1 [DIGALLIC ACID]			580 nM	Active	Activity [9]: Active; Activity [10]: inactive; Activity [5]: Active; Activity (DNA polymerase beta [11]): Active; inhibition [12]: 70%; inhibition [13]: 70%; Ki [14]: 830 nM; Activity [15]: Active; Activity [16]: Active; Activity (DNA polymerase beta [17]): Active; Ki (DNA polymerase beta [18]): 390 nM; Activity [19]: inactive; Activity [20]: Active; inhibition [21]: > 90%; Activity (KB3): inactive
